The source made the active and inactive calls. No cut-off for these calls is given here.
Assays:
HCT-116 [1] = assay: Inhibition of human HCT116 cells; type: functional, cell-based
[2] = Bioavailability in […] dosed rat; type: ADME, organism-based; details: in vivo
SW48 [3] = assay: Antitumor activity against human SW48 cells xenografted in nude mouse model at 75 mg/kg, ip; type: functional; details: route intraperitoneal, read-out: TGI
PANC-1 = assay: Antitumor activity against human PANC1 cells xenografted in nude mouse model at 50 mg/kg, po; type: functional; details: read-out: TGI
SW48 [4] = assay: Antitumor activity against human SW48 cells xenografted in nude mouse model at 30 mg/kg, po; type: functional; details: read-out: TGI
A549 [5] = assay: Antitumor activity against human A549 cells xenografted in nude mouse model at 40 mg/kg, ip; type: functional; details: route intraperitoneal, read-out: TGI
HCT-116 [6] = assay: Antitumor activity against human HCT116 cells xenografted in nude mouse model at 75 mg/kg, ip; type: functional; details: HCT-116, ip, route intraperitoneal, read-out: TGI
A549 [7] = assay: Antitumor activity against human A549 cells xenografted in nude mouse model at 50 mg/kg, po; type: functional; details: read-out: TGI
HL-60 = assay: Inhibition of human HL60 cells; type: functional
HeLa = assay: Inhibition of human HeLa cells; type: functional, cell-based
HCT-116 [8] = assay: Antitumor activity against human HCT116 cells xenografted in nude mouse model at 20 mg/kg, ip; type: functional; details: HCT-116, ip, route intraperitoneal, read-out: TGI
A549 [9] = assay: Antitumor activity against human A549 cells xenografted in nude mouse model at 70 mg/kg, po; type: functional; details: read-out: TGI
SW48 [10] = assay: Antitumor activity against human SW48 cells xenografted in nude mouse model at 25 mg/kg, ip; type: functional; details: route intraperitoneal, read-out: TGI
SW48 [11] = assay: Antitumor activity against human SW48 cells xenografted in nude mouse model at 60 mg/kg, po; type: functional; details: read-out: TGI
Histone deacetylase 5 = Histone deacetylase 5 (Homo sapiens, UniProt Q9UQL6)
Chain of Histone deacetylase 5 (Q9UQL6 whole entry): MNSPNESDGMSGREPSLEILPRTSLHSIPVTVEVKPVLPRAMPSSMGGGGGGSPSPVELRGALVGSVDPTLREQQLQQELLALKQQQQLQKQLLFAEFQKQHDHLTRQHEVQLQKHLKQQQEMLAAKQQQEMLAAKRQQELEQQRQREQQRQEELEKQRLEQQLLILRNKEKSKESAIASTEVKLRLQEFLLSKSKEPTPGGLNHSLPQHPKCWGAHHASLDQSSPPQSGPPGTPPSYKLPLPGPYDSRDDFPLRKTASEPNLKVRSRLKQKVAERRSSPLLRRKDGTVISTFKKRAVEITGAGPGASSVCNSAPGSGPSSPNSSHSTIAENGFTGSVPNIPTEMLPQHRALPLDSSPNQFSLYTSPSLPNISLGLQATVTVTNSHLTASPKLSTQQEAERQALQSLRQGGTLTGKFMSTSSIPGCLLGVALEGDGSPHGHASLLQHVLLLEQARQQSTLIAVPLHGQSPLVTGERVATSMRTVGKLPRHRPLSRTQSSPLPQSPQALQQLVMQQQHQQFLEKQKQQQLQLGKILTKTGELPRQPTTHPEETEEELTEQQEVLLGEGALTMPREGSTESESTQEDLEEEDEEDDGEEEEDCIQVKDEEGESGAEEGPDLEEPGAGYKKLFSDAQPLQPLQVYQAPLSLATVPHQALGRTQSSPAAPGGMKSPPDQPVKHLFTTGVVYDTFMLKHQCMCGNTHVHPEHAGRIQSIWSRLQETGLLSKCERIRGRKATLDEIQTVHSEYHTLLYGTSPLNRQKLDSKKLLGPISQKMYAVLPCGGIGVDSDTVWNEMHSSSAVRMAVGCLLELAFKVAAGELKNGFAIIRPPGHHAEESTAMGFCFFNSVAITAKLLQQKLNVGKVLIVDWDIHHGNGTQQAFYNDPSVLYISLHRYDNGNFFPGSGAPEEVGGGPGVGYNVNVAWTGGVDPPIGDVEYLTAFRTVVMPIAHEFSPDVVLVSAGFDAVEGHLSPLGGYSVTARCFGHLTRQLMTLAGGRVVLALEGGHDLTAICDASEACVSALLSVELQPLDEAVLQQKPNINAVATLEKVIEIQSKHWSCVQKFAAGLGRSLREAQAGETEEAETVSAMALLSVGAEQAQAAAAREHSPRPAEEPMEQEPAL

Histone deacetylase 8 = molecular target: T1, Histone deacetylase 8 (Homo sapiens, UniProt Q9BY41)
T1 sequence (Q9BY41 whole entry): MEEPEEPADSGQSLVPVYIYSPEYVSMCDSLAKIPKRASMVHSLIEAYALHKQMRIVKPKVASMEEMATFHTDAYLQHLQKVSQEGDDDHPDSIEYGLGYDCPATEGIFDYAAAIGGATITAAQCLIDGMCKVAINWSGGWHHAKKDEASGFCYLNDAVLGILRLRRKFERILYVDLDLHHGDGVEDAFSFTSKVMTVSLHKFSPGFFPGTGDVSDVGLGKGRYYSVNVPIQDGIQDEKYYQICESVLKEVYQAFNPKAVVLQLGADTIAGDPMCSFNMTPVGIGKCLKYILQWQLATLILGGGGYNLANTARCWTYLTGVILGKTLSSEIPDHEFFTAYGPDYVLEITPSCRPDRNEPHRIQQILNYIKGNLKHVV

Histone deacetylase 7 = Histone deacetylase 7 (Homo sapiens, UniProt Q8WUI4)
Chain of Histone deacetylase 7 (Q8WUI4 whole entry): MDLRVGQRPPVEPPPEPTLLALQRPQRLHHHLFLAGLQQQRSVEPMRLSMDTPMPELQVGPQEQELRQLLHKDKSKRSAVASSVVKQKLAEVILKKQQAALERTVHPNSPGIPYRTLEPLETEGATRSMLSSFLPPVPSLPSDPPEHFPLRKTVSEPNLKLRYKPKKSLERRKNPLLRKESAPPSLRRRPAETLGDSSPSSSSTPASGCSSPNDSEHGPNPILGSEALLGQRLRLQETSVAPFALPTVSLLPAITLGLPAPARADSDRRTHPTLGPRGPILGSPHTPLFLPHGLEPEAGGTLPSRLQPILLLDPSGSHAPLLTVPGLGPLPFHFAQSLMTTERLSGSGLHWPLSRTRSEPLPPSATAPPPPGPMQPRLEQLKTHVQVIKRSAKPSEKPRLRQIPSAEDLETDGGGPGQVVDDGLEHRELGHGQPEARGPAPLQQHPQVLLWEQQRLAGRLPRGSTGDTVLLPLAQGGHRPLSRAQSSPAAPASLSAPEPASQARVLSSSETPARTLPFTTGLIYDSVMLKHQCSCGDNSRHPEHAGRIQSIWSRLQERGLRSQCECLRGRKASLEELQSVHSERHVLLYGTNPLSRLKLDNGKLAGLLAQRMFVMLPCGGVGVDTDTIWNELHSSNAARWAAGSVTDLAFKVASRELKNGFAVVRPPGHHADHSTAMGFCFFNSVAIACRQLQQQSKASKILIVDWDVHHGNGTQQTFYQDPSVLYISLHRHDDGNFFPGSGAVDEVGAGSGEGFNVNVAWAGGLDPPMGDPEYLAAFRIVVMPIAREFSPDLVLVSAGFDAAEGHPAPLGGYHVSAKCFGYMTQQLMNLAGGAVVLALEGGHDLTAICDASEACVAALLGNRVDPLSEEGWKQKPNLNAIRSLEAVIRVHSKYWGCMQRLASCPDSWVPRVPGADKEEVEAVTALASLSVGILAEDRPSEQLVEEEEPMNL

Histone deacetylase 3 = Histone deacetylase 3 (Homo sapiens, UniProt O15379)
Chain of Histone deacetylase 3 (O15379 whole entry): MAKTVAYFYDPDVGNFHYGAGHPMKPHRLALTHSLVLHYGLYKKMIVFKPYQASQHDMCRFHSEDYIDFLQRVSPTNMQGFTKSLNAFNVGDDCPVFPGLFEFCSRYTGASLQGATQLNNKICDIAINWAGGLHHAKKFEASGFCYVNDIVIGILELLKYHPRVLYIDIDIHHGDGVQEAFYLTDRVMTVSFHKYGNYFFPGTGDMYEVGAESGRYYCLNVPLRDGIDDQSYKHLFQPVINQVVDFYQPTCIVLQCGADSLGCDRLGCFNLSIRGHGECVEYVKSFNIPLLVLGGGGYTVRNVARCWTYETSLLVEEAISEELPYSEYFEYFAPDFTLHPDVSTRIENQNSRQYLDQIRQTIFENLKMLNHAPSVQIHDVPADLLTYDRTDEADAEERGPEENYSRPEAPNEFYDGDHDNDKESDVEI

[12] = molecular target: T2, Protein deacetylase HDAC6 (Homo sapiens, UniProt Q9UBN7)
T2 sequence (Q9UBN7 whole entry): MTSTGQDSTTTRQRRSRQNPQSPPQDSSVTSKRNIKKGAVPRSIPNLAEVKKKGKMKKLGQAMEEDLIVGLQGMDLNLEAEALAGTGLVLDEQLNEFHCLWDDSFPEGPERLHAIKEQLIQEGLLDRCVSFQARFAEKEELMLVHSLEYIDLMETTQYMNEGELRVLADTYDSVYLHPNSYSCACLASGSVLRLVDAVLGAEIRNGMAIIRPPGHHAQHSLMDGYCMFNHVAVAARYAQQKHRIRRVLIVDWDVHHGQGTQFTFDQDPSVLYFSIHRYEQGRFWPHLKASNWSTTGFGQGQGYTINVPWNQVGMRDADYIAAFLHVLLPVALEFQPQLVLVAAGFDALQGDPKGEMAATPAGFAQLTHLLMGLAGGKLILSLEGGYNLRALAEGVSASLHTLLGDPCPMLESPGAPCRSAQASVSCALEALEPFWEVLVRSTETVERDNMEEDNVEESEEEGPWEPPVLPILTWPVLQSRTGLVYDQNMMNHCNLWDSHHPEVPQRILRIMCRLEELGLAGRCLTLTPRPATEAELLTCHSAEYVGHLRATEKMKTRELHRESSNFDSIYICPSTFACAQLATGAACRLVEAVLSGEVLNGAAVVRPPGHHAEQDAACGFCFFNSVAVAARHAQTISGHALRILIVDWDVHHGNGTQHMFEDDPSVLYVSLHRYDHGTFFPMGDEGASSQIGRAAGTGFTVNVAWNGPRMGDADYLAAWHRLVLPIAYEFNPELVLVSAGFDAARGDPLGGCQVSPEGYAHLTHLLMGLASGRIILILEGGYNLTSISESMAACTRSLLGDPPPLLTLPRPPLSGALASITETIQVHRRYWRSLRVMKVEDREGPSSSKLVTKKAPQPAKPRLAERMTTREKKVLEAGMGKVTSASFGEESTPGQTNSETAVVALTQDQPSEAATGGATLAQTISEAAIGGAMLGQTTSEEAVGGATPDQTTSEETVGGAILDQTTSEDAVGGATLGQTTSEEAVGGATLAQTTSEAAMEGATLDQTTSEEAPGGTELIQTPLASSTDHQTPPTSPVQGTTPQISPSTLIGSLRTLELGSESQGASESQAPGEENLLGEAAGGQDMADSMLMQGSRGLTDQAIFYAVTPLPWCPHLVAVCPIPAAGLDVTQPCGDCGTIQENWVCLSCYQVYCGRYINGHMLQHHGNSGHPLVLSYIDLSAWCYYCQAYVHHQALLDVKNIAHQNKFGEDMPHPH

Histone deacetylase 9 = Histone deacetylase 9 (Homo sapiens, UniProt Q9UKV0)
Histone deacetylase 4 [13] = molecular target: T3, Histone deacetylase 4 (Homo sapiens, UniProt P56524); assay: Inhibition of HDAC4 at 50 uM
T3 sequence (P56524 whole entry): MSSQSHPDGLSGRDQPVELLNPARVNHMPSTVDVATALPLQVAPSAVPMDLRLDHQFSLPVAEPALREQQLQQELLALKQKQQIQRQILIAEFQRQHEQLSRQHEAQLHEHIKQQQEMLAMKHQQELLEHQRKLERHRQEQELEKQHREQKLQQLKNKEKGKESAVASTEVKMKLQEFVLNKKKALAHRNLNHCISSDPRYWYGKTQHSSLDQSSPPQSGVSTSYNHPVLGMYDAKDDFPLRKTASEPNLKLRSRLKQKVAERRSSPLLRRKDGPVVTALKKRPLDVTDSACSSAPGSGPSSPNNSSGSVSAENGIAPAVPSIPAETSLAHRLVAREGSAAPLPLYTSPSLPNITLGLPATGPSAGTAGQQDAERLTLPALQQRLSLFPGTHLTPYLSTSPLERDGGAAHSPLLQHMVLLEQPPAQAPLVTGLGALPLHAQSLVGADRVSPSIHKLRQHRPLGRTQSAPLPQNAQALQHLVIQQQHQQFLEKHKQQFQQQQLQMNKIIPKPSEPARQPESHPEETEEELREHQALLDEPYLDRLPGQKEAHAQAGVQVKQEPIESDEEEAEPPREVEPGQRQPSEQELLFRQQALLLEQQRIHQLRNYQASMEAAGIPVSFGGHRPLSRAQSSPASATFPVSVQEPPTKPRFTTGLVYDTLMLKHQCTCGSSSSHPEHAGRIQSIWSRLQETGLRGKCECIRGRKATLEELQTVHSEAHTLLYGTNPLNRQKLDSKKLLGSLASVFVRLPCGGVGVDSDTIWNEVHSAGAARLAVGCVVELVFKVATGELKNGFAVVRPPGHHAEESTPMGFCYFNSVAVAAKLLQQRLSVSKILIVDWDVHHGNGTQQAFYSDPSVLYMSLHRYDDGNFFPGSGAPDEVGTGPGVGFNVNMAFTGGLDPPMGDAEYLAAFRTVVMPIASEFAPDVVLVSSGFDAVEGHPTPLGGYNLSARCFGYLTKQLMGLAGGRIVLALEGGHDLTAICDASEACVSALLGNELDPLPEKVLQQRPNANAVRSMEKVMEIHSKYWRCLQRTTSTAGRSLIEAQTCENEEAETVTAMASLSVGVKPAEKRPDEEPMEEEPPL

MKN-45 = assay: Antiproliferative activity against human MKN45 cells; type: functional, cell-based
Cytochrome P450 3A4 = Cytochrome P450 3A4 (Homo sapiens, UniProt P08684); assay: Inhibition of CYP3A4; type: ADME
Histone deacetylase 4 [14] = molecular target: T3, Histone deacetylase 4
Histone deacetylase 1 [15] = molecular target: T4, Histone deacetylase 1 (Homo sapiens, UniProt Q13547); assay: Inhibition of HDAC1 from human HeLa cells; type: cell-based
T4 sequence (Q13547 whole entry): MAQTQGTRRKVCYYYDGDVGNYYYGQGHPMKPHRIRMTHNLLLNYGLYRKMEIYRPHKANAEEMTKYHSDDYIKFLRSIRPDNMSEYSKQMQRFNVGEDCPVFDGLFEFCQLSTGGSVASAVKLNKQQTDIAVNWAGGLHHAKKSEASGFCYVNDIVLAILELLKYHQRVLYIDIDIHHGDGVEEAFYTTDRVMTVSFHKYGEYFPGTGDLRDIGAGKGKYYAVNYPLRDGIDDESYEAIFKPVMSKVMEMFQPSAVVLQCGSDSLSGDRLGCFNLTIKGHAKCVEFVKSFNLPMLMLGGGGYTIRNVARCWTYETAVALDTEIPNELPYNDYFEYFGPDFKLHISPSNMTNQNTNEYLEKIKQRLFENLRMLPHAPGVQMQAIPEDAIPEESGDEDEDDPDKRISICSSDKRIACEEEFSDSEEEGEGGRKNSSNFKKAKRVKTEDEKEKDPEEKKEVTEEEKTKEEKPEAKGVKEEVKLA

[16] = Metabolic stability in human liver microsomes; type: ADME, Microsome
[17] = molecular target: Histone deacetylase 7 (Homo sapiens) (UniProt Q8WUI4); assay: Inhibition of HDAC7
Chain of Histone deacetylase 7 (Homo sapiens) (Q8WUI4 whole entry): as the sequence (Q8WUI4 whole entry) above

G-401 = assay: Inhibition of human G401 cells; type: functional, cell-based
Histone deacetylase 2 = Histone deacetylase 2 (Homo sapiens, UniProt Q92769)
Chain of Histone deacetylase 2 (Q92769 whole entry): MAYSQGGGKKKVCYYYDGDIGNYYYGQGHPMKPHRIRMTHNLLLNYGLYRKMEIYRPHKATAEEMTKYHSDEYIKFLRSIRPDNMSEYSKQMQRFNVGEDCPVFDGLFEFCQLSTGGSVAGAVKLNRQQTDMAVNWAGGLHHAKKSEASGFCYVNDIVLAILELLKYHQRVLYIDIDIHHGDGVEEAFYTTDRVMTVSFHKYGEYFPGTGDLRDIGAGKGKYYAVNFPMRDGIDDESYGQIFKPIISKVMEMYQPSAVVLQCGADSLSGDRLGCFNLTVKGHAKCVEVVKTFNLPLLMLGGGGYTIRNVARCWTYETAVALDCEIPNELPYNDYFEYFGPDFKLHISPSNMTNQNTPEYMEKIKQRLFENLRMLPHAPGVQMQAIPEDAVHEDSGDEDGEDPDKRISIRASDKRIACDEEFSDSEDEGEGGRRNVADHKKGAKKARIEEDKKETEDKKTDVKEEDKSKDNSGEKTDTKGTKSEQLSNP

Histone deacetylase 1 [18] = molecular target: T4, Histone deacetylase 1
Description: Inhibition of human HDAC1

A2780 = assay: Inhibition of human A2780 cells; type: functional, cell-based
A549 [19] = assay: cells; details: Homo sapiens
Description: Antiproliferative activity against human A549 cells

MCF7 = assay: Inhibition of human MCF7 cells; type: functional, cell-based
Histone deacetylase 1 [20] = molecular target: T4, Histone deacetylase 1; remark: listed apart in the source
U-937 = assay: Inhibition of human U937 cells; type: functional, cell-based
[21] = Growth inhibition of human renal epithelial cells; type: functional, cell-based; details: Epithelial cell
Histone deacetylase 4 [22] = molecular target: T3, Histone deacetylase 4; remark: listed apart in the source

**Q.** With `COc1ccc(NCc2ccc(C(=O)Nc3ccccc3N)cc2)cc1OC` as the compound, how does the IC50 (HCT-116 [1]) read?
**A.** 400 nM

**Q.** And the bioavailability [2]?
**A.** 20%

**Q.** What about the inhibition in vivo at 75 mg/kg (SW48 [3]) of the same compound?
**A.** 100%

**Q.** And the inhibition in vivo at 50 mg/kg (PANC-1)?
**A.** 84%

**Q.** What about the inhibition in vivo at 30 mg/kg (SW48 [4]) of the same compound?
**A.** 78%

**Q.** What about the inhibition in vivo at 40 mg/kg (A549 [5]) of the same compound?
**A.** 73%

**Q.** What about the inhibition in vivo at 75 mg/kg (HCT-116 [6]) of the same compound?
**A.** 86%

**Q.** What about the inhibition in vivo at 50 mg/kg (A549 [7]) of the same compound?
**A.** 67%

**Q.** With `Nc1ccc(F)cc1NC(=O)c1ccc(CNC(=O)/C=C/c2ccccc2)cc1` as the compound, how does the GI50 (HL-60) read?
**A.** 400 nM

**Q.** And the GI50 (HeLa)?
**A.** 40000 nM

**Q.** For `COc1cc(NCc2ccc(/C=C/C(=O)Nc3ccccc3N)cc2)cc(OC)c1OC`, which inhibition in vivo at 20 mg/kg (HCT-116 [8]) is on record?
**A.** 80%

**Q.** And the IC50 (HCT-116 [1])?
**A.** 2000 nM

**Q.** And the inhibition in vivo at 70 mg/kg (A549 [9])?
**A.** 40%

**Q.** What about the inhibition in vivo at 25 mg/kg (SW48 [10]) of the same compound?
**A.** 73%

**Q.** What about the inhibition in vivo at 60 mg/kg (SW48 [11]) of the same compound?
**A.** 16%

**Q.** Which IC50 (Histone deacetylase 5) does the source give for `CC(C)[C@H]1NC(=O)[C@@H](C)[C@@H](C/C=C\CCC(=O)O)NC(=O)[C@@H](Cc2ccccc2)NC(=O)[C@@H](C)NC1=O` [AZUMAMIDE E] here?
**A.** 10000 nM

**Q.** And the IC50 (Histone deacetylase 8)?
**A.** 3700 nM

**Q.** And the IC50 (Histone deacetylase 7)?
**A.** 9700 nM

**Q.** And the IC50 (Histone deacetylase 3)?
**A.** 80 nM

**Q.** And the IC50 [12]?
**A.** 12000 nM

**Q.** And the IC50 (Histone deacetylase 9)?
**A.** 28000 nM

**Q.** And the inhibition (Histone deacetylase 4 [13])?
**A.** 30%

**Q.** With `O=C(NO)c1ccc(-c2ccn(CCNCc3ccc4c(c3)OCO4)n2)s1` as the compound, how does the IC50 (MKN-45) read?
**A.** 630 nM

**Q.** And the IC50 (Cytochrome P450 3A4)?
**A.** 510 nM

**Q.** Which AC50 (Histone deacetylase 4 [14]) does the source give for `CC(=O)CCCCC[C@H](NC1CCCCN1C)C(=O)Nc1nc(-c2ccccc2)cs1` (some centres not stated) here?
**A.** Not Active

**Q.** And the IC50 (Histone deacetylase 1 [15])?
**A.** 430 nM

**Q.** What about the microsomal CLint [16] of the same compound?
**A.** 54 µL/min/mg

**Q.** What about the IC50 (Histone deacetylase 5) of the same compound?
**A.** 1900 nM

**Q.** And the Activity [17]?
**A.** inactive

**Q.** What about the IC50 (Histone deacetylase 8) of the same compound?
**A.** 3000 nM

**Q.** And the IC50 (HCT-116 [1])?
**A.** 670 nM

**Q.** What about the IC50 (G-401) of the same compound?
**A.** 250 nM

**Q.** What about the IC50 (Histone deacetylase 2) of the same compound?
**A.** 170 nM

**Q.** And the IC50 (Histone deacetylase 1 [18])?
**A.** 55 nM

**Q.** And the IC50 (A2780)?
**A.** 1700 nM

**Q.** What about the IC50 (Histone deacetylase 3) of the same compound?
**A.** 14 nM

**Q.** And the IC50 [12]?
**A.** 13 nM

**Q.** And the IC50 (A549 [19])?
**A.** 2000 nM

**Q.** What about the IC50 (MCF7) of the same compound?
**A.** 230 nM

**Q.** What about the IC50 (Histone deacetylase 1 [20]) of the same compound?
**A.** 55 nM

**Q.** And the IC50 (U-937)?
**A.** 450 nM

**Q.** And the IC50 (HeLa)?
**A.** 430 nM

**Q.** What about the IC50 [21] of the same compound?
**A.** > 20000 nM

**Q.** Which results are given for `CC(=O)Nc1ccc(C(=O)Nc2cc(-c3cccs3)ccc2N)cc1`?
**A.** IC50 (Histone deacetylase 5): > 20000 nM; IC50 (Histone deacetylase 8): > 20000 nM; IC50 (Histone deacetylase 7): > 20000 nM; IC50 (Histone deacetylase 4 [22]): > 20000 nM

Source: ChEMBL document CHEMBL1142268, “Histone deacetylase inhibitors: from bench to clinic” (J Med Chem, 2008)
